Measured values from patent US5990094A, “Inhibitors of sorotonin N-acetyltransferase” (The Rockefeller University, priority 1998, dated 1999).
Where “and” joins values, the source holds several entries; their conditions need not be identical. Equal values may be shown once. Entries after “also recorded” stand apart in the source; their conditions may differ. Read-outs that look alike come from different tables or passages of the source.

Tests used:
AANAT [1] = biological target: T1, AANAT (Ovis aries, UniProt Q29495); test: Viscosity studies with sucrose as microviscogen; assay type: biochemical, sheep; parameters: The entire open reading frame of the DNA encoding sheep AANAT in the plasmid vector pET15b; GST (glutathione S-transferase, thrombin-cleavable) (N); made in house; host or cells: Escherichia coli; conditions: for slope of kcat-control/kcat-viscogen vs. relative viscosity: kcat effect (FIG. 10); for rate-determining step: viscosity studies
T1 sequence (Q29495 whole entry): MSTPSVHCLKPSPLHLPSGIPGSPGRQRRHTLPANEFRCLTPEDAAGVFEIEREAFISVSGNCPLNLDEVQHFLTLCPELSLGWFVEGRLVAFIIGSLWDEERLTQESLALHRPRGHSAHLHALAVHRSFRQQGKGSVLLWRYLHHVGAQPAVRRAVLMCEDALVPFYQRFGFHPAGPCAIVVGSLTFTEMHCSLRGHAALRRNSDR
Text: An important part of enzyme mechanistic analysis is to determine which step(s) is (are) rate-determining for the enzyme reaction. After the binding of the substrates to the enzyme, there are several potential rate-determining steps, the chemical step or one of the product release steps.
Viscosity effects can be useful for distinguishing product release steps from non-diffusional steps (66). The principle of using viscosity effects to study enzyme reaction kinetics is based on the fundamental inverse relationship between microviscosity and diffusional rates. Thus a linear increase in microviscosity caused by a microviscogen such as sucrose causes a linear decrease in the diffusion of small molecules. Since little diffusion is involved in the chemical step, this step is taken as viscosity-insensitive. However, viscogenic agents (which are used at rather high concentrations) can cause non-diffusion related effects by interacting with the enzyme or substrate. Controls for these non-diffusional effects must be carried out. […] Since poor substrates in general would be expected to have reduced kcat values because the rate of their chemical steps are reduced, any viscosity effects observed would be expected to be related to non-diffusional or "artifactual" effects.

AANAT [2] = biological target: T1, AANAT; test: Tryptamine analogs as AANAT substrates, steady-state kinetic parameters
Experimental: Expression of eukaryotic proteins in bacteria is unpredictable.
The enzymatic assays available for AANAT were direct, radioactive assays. […] Thus indirect methods to measure CoASH formation were tested.
The first objective of these studies was to determine the tolerance of alkyl chain length for substrate processing efficiency. […] Indole-propylamine (7.1) and indole-butylamines(7.2) are not commercially available and were prepared as shown (FIG. 7) (6l).
Another important selectivity issue was addressing the effects of a-methyl and Nw-methyl-substitutions of tryptamine analogs (FIG. 8) on AANAT catalysis. […] These compounds were obtained from commercial sources and tested as AANAT substrates. […] Using these compounds.

GST-AANAT [3] = biological target: T2, GST-AANAT (Ovis aries, UniProt Q29495); test: Kinetic measurements with inhibitors of GST-AANAT; assay type: biochemical, sheep
T2 construct: The entire open reading frame of the DNA encoding sheep AANAT in the plasmid vector pET15b; made in house; host or cells: Escherichia coli BL21(DE3)pLysS
T2 sequence (Q29495 other isoform, or with tags, fused parts or gaps): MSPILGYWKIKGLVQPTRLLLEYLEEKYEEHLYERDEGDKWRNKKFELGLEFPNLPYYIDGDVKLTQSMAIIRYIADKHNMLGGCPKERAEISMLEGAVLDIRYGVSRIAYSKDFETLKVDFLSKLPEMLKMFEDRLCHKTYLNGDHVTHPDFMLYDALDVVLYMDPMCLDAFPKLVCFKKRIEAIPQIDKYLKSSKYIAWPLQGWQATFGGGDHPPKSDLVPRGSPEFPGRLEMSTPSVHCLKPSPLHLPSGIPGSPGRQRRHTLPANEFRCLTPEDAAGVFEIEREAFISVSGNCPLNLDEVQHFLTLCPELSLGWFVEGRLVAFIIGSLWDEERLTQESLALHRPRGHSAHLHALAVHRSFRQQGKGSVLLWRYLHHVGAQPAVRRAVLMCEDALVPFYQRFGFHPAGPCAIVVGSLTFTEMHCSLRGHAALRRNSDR
Experimental: (§1) DTNB Product Detection Assay
(§2) This assay is based on the detection of CoASH generated during acetyl transfer by reaction with the thiol reagent DTNB (19). […] Reactions were initiated with enzyme (3 μl, 5-30 nM final concentration) that had been prediluted (10-100 fold) in 50 mM sodium phosphate, 500 mM NaCl, 2 mM EDTA, and 0.05 mg/ml bovine serum albumin in the absence of reducing agent immediately before use and maintained on ice during the assay. The reactions were quenched for 0-3 min with 0.6 ml of a buffer containing guanidinium-HCl (3.2 M), sodium phosphate (0.1 M), pH 6.8. These mixtures were treated with 0.1 ml of DTNB (2 mM, 0.1 M sodium phosphate, pH 6.8, 10 mM EDTA), vortexed, and allowed to stand for 5 min before absorbance readings were performed at 412 nm (thiophenolate-quantified assuming ε=13.7×10^3 M^-1 cm^-1) (19). Background absorbances (with all components added including enzyme) were measured and subtracted from the total absorbance. […] The rate of conversion of acetyl-CoA to CoASH in the absence of amine was negligible over the course of the assay.
Kinetic Measurements with Inhibitors
.upsilon.=Vm ·S/Km (1+I/Kis) (Eq. 3) using a nonlinear least squares approach. The fixed substrate was assumed to be saturating.
.upsilon.=Vm ·S/[Km (1+I/Kis)+S(1+I/Kii)](Eq. […]
(§3) using a nonlinear least squares approach.
V=Vm ·S/[Km +S(1+I/Kii)] (Eq. 5)
The abbreviations are Kii =Ki intercept and Kis =Ki slope based on double-reciprocal plot analysis according to the nomenclature of Cleland (21). The data for individual experiments with each inhibitor versus a varied substrate were fit to all three inhibitor models. Choice of kinetic fit was based on a combination of visual inspection and comparison of S.E. values and residuals for all three inhibition types

GST-AANAT [4] = biological target: T2, GST-AANAT; test: Tryptophol tested as alternative substrate of GST-AANAT; assay type: biochemical, sheep; conditions: 1 mM tryptophol, 1 mM acetyl-CoA, up to 3 min
Experimental: as §1, §2
The structural analog to tryptamine in which the primary amine function is replaced by a hydroxyl function (tryptophol) (see FIG. 4) could theoretically be an alternative AANAT substrate.

GST-AANAT [5] = biological target: T2, GST-AANAT; test: Two-substrate steady state kinetics with GST-AANAT; assay type: biochemical, sheep
Experimental: as §1
(§4) This assay is based on the detection of CoASH generated during acetyl transfer by reaction with the thiol reagent DTNB (19). […] Reactions were initiated with enzyme (3 μl, 5-30 nM final concentration) that had been prediluted (10-100 fold) in 50 mM sodium phosphate, 500 mM NaCl, 2 mM EDTA, and 0.05 mg/ml bovine serum albumin in the absence of reducing agent immediately before use and maintained on ice during the assay. The reactions were quenched for 0-3 min with 0.6 ml of a buffer containing guanidinium-HCl (3.2 M), sodium phosphate (0.1 M), pH 6.8. […] Background absorbances (with all components added including enzyme) were measured and subtracted from the total absorbance.
Two-Substrate Kinetic Measurements
Two substrate kinetic analysis was performed with substrate concentrations given in FIG. 3, and the data were fitted to the sequential (ternary complex) mechanism equation (Equation 2) using the computer program Kinet-Asyst II™ (IntelliKinetics, State College, Pa.) based on the algorithms of Cleland (20),
.upsilon.=Vm ·A·B/(Ka ·Kb
·Kma ·B+Kmb ·A+A·B)(Eq. 2)
as §3

AANAT [6] = biological target: T1, AANAT; test: a-Trifluoromethyltryptamine tested as AANAT substrate and competitive inhibitor; assay type: biochemical, sheep; parameters: The entire open reading frame of the DNA encoding sheep AANAT in the plasmid vector pET15b; GST (glutathione S-transferase, thrombin-cleavable) (N); made in house; host or cells: Escherichia coli
Experimental: Expression of eukaryotic proteins in bacteria is unpredictable. Indeed, efforts to express the rat and human AANAT protein in E. coli have so far been unsuccessful. In contrast, the sheep enzyme which is 80% identical at the amino acid level to rat and human can be expressed in E. coli as a soluble protein (51). GST-AANAT can be obtained in approximately 90% purity with a yield of 5-10 mg/L of E. coli culture after purification with glutathione-agarose. Optimization of conditions for production of this fusion protein has led to the induction being carried out at 22-24° C. for 5-6 h after 0.2 mM IPTG to prevent inclusion body formation. The fusion protein can be concentrated to>6 mg/mL using an Amicon filter and appears to be stable for at least 6 months when stored at -80° C. in the presence of a thiol-reducing agent. […] Specific activity is also highly reproducible from batch to batch. Cleavage of the fusion protein with thrombin followed by repeat glutathione-affinity chromatography has afforded GST-free AANAT.
Quantitatively, the specific activity is essentially identical to the conventional radioactive assay. Importantly, there is no evidence of significant uncoupling of CoASH production and amide formation with any substrates (or non-substrates) tested.
Commercially available bromotrifluoromethyl ketone was converted to the oxime by reaction with hydroxylamine. The oxime was used to generate the vinyl nitroso derivative which was used in situ to react in a 4+2 cycloaddition and produce the 3-substituted indole. Reduction of this material with LiAlH4 led to generation of racemic a-trifluoromethyltryptamine. a-Trifluoromethyltryptamine was calculated to have a primary amine pKa of approximately 6. […] It is not clear from these studies if the lack of tight binding of a-trifluoromethyltryptamine represents steric or electronic repulsion of the fluorines offset by the tighter binding of the neutral amine function, or if a positively charged amine is the preferred state for binding to AANAT (65).

GST-AANAT fusion = GST-AANAT fusion (Ovis aries, UniProt Q29495); test: DTNB product detection assay, apparent substrate kinetics with GST-AANAT
Chain of GST-AANAT fusion (Q29495 whole entry, the tested form may be a part): as the sequence (Q29495 whole entry) above
Experimental: as §1, §4

[7] = varied substrate acetyl-CoA, tryptamine 0.2 mM (subsaturating)
[8] = varied substrate acetyl-CoA, tryptamine 0.2 mM, read-out: Ksi
[9] = varied substrate tryptamine, acetyl-CoA 1 mM
[10] = varied substrate tryptamine, acetyl-CoA 1 mM, read-out: Kis

SMILES: CNCCc1c[nH]c2ccccc12 [Nw-methyltryptamine]
- slope of kcat-control/kcat-viscogen vs. relative viscosity (AANAT [1]; sucrose): +0.16±0.03
- slope of kcat/Km control/viscogen vs. relative viscosity (AANAT [1]; sucrose, kcat/Km effect): -0.14±0.03
- rate-determining step (AANAT [1]): the chemical step is rate-determining
- AANAT substrate (AANAT [2]): substrates
- kcat and Km compared to tryptamine (AANAT [2]): significantly reduced kcat and Km compared to tryptamine; also recorded: substantially reduced kcat compared to tryptamine

SMILES: OCCc1c[nH]c2ccccc12 [Tryptophol, tryptophol]
- Inhibitor pattern (GST-AANAT [3]; [7]): uncompetitive
- Inhibitor pattern (GST-AANAT [3]; varied substrate acetyl-CoA, tryptamine 0.2 mM (subsaturating), listed as trypochol): linear uncompetitive
- Inhibitor pattern (GST-AANAT [3]; varied substrate acetyl-CoA, tryptamine 0.2 mM (subsaturating), listed as tryptophol): uncompetitive inhibitor
- Ki (GST-AANAT [3]; [8]): 1360 ± 120 µM
- Inhibitor pattern (GST-AANAT [3]; [9]): competitive
- Inhibitor pattern (GST-AANAT [3]; varied substrate tryptamine, acetyl-CoA 1 mM, listed as tryptophol): linear competitive inhibitor
- Ki (GST-AANAT [3]; [10]): 680 ± 78 µM
- Kis relative to Kii in a noncompetitive fit (GST-AANAT [3]; versus acetyl-CoA): more than 10 times
- acetyl transfer (alternative substrate) (GST-AANAT [4]): prevents enzyme-catalyzed acetyl transfer; also recorded: not an alternative substrate
- acetylation efficiency relative to tryptamine, fold less (GST-AANAT [4]): at least 400 fold
- acetyl transfer (alternative substrate) (GST-AANAT [4]; listed as tryptophol): no detectable transfer took place; also recorded: not a substrate

SMILES: CC(=O)SCCNC(=O)CCNC(=O)[C@H](O)C(C)(C)COP(=O)(O)OP(=O)(O)OC[C@H]1O[C@@H](n2cnc3c(N)ncnc32)[C@H](O)[C@@H]1OP(=O)(O)O [Acetyl-CoA, acetyl-CoA]
- Kd (GST-AANAT [5]; ordered sequential mechanism, read-out: Kin (dissociation constant of the first binding substrate)): 509 ± 156 µM
- Kd (GST-AANAT [5]; read-out: dissociation constant (Kd)): 510 µM

SMILES: NC(Cc1c[nH]c2ccccc12)C(F)(F)F (racemic) [a-trifluoromethyltryptamine]
- AANAT substrate (AANAT [6]): not detectably an AANAT substrate
- Ki (AANAT [6]; competitive inhibitor): 3000 ± 1000 µM
- AANAT substrate (AANAT [6]; listed as Ya-Trifluoromethyltryptamine): not to be a substrate

SMILES: NCCc1c[nH]c2ccc(O)cc12 [Serotonin, 5-hydroxytryptamine]
- kcat (AANAT [2]; Table 1, tryptamine analogs): 34 ± 1 s⁻¹
- kcat(app) (GST-AANAT fusion; 1 mM (near saturating) concentration of the fixed substrate): 34 ± 2 s⁻¹
- kcat(app) and Km(app) compared with tryptamine (GST-AANAT fusion; serotonin vs tryptamine): nearly indistinguishable from those obtained with tryptamine

SMILES: CC(N)Cc1c[nH]c2ccccc12 (racemic) [a-methyltryptamine]
- AANAT substrate (AANAT [2]): substrates
- kcat and Km compared to tryptamine (AANAT [2]): significantly reduced kcat and Km compared to tryptamine

SMILES: CCNC(=O)CCNC(=O)[C@H](O)C(C)(C)COP(=O)(O)OP(=O)(O)OC[C@H]1O[C@@H](n2cnc3c(N)ncnc32)[C@H](O)[C@@H]1OP(=O)(O)O [Desulfo-CoA, desulfo-CoA]
- Ki (GST-AANAT [3]; quoted in discussion, read-out: K1): 1000 µM
- Kis relative to dissociation constant of acetyl-CoA (GST-AANAT [3]; saturating tryptamine): 2 fold
- Inhibitor pattern (GST-AANAT [3]; varied substrate acetyl-CoA, tryptamine 1 mM): linear competitive inhibitor
- Inhibitor pattern (GST-AANAT [3]; varied substrate acetyl-CoA, tryptamine 1 mM, listed as desulfo-CoA): linear competitive
- Ki (GST-AANAT [3]; varied substrate acetyl-CoA, tryptamine 1 mM, read-out: Kis): 1020 µM and 1000 µM
- Inhibitor pattern (GST-AANAT [3]; varied substrate tryptamine, acetyl-CoA 0.2 mM): noncompetitive inhibitor
- Inhibitor pattern (GST-AANAT [3]; varied substrate tryptamine, acetyl-CoA 0.2 mM, listed as desulfo-CoA): linear noncompetitive
- Ki (GST-AANAT [3]; varied substrate tryptamine, acetyl-CoA 0.2 mM, read-out: Kis): 1340 ± 450 µM
- Ki (GST-AANAT [3]; varied substrate tryptamine, acetyl-CoA 0.2 mM, read-out: Ksi): 1490 ± 230 µM

SMILES: NCCc1c[nH]c2ccccc12 [Tryptamine, tryptamine]
- slope of kcat-control/kcat-viscogen vs. relative viscosity (AANAT [1]; sucrose): +0.75±0.08
- rate-determining step (AANAT [1]): product release (or a conformational change associated with product release) is largely rate-determining

SMILES: CC(=O)NCCc1c[nH]c2ccccc12 [N-Acetyltryptamine, N-acetyltryptamine]
- Inhibitor pattern (GST-AANAT [3]; [7]): uncompetitive
- Inhibitor pattern (GST-AANAT [3]; varied substrate acetyl-CoA, tryptamine 0.2 mM (subsaturating), listed as N-acetyltryptamine): uncompetitive inhibitor
- Ki (GST-AANAT [3]; [8]): 331 ± 23 µM
- Inhibitor pattern (GST-AANAT [3]; [9]): noncompetitive
- Inhibitor pattern (GST-AANAT [3]; varied substrate tryptamine, acetyl-CoA 1 mM, listed as N-acetyltryptamine): noncompetitive inhibitor; also recorded: linear noncompetitive
- Ki (GST-AANAT [3]; [10]): 205 ± 29 µM
- Ki (GST-AANAT [3]; varied substrate tryptamine, acetyl-CoA 1 mM, read-out: Ksi): 916 ± 160 µM
